± gives the expanded uncertainty stated by the source.
Settings: 355.27 K, Fluid (supercritical or subcritical phases), Vibrating tube method

FC(F)=C(F)C(F)(F)F [hexafluoropropene]
Settings | mass density [kg/m3]
1594.4 kPa | 103.05 ± 0.15
1615.6 kPa | 104.91 ± 0.16
1637.4 kPa | 106.88 ± 0.16
1658.5 kPa | 108.66 ± 0.16
1679.5 kPa | 110.49 ± 0.16
1700.6 kPa | 112.4 ± 0.17
1722 kPa | 114.41 ± 0.17
1742.9 kPa | 116.28 ± 0.17
1765.2 kPa | 118.41 ± 0.18
1787.1 kPa | 120.47 ± 0.18
1808.3 kPa | 122.49 ± 0.18
1829.9 kPa | 124.54 ± 0.19
1850.6 kPa | 126.59 ± 0.19
1872.5 kPa | 128.81 ± 0.2
1894.5 kPa | 131.08 ± 0.2
1916.5 kPa | 133.35 ± 0.2
1938.7 kPa | 135.65 ± 0.21
1959.7 kPa | 137.89 ± 0.21
1982.8 kPa | 140.34 ± 0.22
2005.5 kPa | 142.79 ± 0.22
2026.6 kPa | 145.09 ± 0.23
2048.1 kPa | 147.46 ± 0.23
2070.2 kPa | 150.03 ± 0.24
2091.7 kPa | 152.48 ± 0.24
2135.3 kPa | 157.72 ± 0.25
2158.3 kPa | 160.53 ± 0.26
2179.4 kPa | 163.15 ± 0.26
2202.1 kPa | 165.99 ± 0.27
2224 kPa | 168.96 ± 0.28
2247.3 kPa | 172.07 ± 0.29
2269.2 kPa | 174.95 ± 0.3
2292 kPa | 178.14 ± 0.3
2312.5 kPa | 181.03 ± 0.31
2334.2 kPa | 184.18 ± 0.32
2357.3 kPa | 187.61 ± 0.34
2380.5 kPa | 191.26 ± 0.34
2392.5 kPa | 193.1 ± 0.35
2415.5 kPa | 196.68 ± 0.36
2439.9 kPa | 200.64 ± 0.38
2460.5 kPa | 204.27 ± 0.38
2484.5 kPa | 208.35 ± 0.39
2507 kPa | 212.34 ± 0.41
2520.2 kPa | 214.82 ± 0.43
2544.4 kPa | 219.44 ± 0.45
2556.6 kPa | 221.88 ± 0.45
2578.3 kPa | 226.29 ± 0.47
2599.8 kPa | 230.72 ± 0.5
2622.7 kPa | 235.78 ± 0.52
2645.2 kPa | 240.85 ± 0.54
2666.2 kPa | 245.89 ± 0.57
2688.5 kPa | 251.47 ± 0.61
2710.9 kPa | 257.56 ± 0.66
2733.3 kPa | 263.91 ± 0.73
2754.7 kPa | 270.59 ± 0.74
2776.5 kPa | 277.69 ± 0.8
2797.6 kPa | 285.33 ± 0.87
2818.7 kPa | 293.63 ± 0.97
2839.2 kPa | 302.86 ± 1.1
2859.6 kPa | 313.18 ± 1.3
2880.7 kPa | 325.44 ± 1.4
2900.2 kPa | 339.29 ± 3.7
2901.3 kPa | 340.48 ± 4.2
2902.9 kPa | 341.95 ± 9.1
2904 kPa | 342.82 ± 9.8
2905.6 kPa | 344.36 ± 11
2906.7 kPa | 345.34 ± 12
2908.4 kPa | 347.2 ± 7.7

— the NIST ThermoML archive (doi:10.1021/je900596d)
